Test results reported in patent US20050037923A1, “Herbicidal mixture based on 7-pyrazolybenzoxazoles” (BASF Aktiengesellschaft, priority 2001, published 2005).
Where a name gives a salt, the structure may show the parent alone.

Experiments:
BIDPI [1] = experiment: Greenhouse test, post-emergence herbicidal action; format: in vivo, hairy beggarticks
Excerpt: (§1) For the post-emergence treatment, the test plants were first grown to a height of 3 to 20 cm, depending on the plant habit, and only then treated. Here, the herbicidal compositions were suspended or emulsified in water as distribution medium and sprayed using finely distributing nozzles.
(§2) The respective components A and B and/or C were formulated as 10% by weight strength emulsion concentrate and introduced to the spray liquor with the amount of solvent system used for applying the active compound. In the examples, the solvent used was water.
(§3) The test period extended over 21 days. During this time, the plants were tended, and their response to the treatments with active compound was evaluated.
(§4) The evaluation for the damage caused by the chemical compositions was carried out using a scale from 0 to 100%, compared to the untreated control plants. Here, 0 means no damage and 100 means complete destruction of the plants.
(§5) In the examples below, the value E which is to be expected if the activity of the individual active compounds is just additive was calculated using the method of S. R. Colby (1967) “Calculating synergistic and antagonistic responses of herbicide combinations”, Weeds 15, p. 22 ff. E=X+Y—(X·Y/100) where • X=effect in percent using active compound A at an application rate a; • Y=effect in percent using active compound B at an application rate b; • E=expected effect (in %) of A+B at application rates a+b.
(§6) The plants used in the greenhouse experiments were of the following species: […]

BRAPL = experiment: Greenhouse test, post-emergence herbicidal action; format: in vivo, alexandergrass
Excerpt: as §1, §2, §3, §4, §5, §6

ECHCG = experiment: Greenhouse test, post-emergence herbicidal action; format: in vivo, barnyardgrass
Excerpt: as §1, §2, §3, §4, §5, §6

GALAP = experiment: Greenhouse test, post-emergence herbicidal action; format: in vivo, catchweed bedstraw
Excerpt: as §1, §2, §3, §4, §5, §6

ABUTH [2] = experiment: Greenhouse test, post-emergence herbicidal action; format: in vivo, velvet leaf; settings: 21 days
Excerpt: as §1, §2, §3, §4, §5, §6

POLPE = experiment: Greenhouse test, post-emergence herbicidal action; format: in vivo, ladysthumb
Excerpt: as §1, §2, §3, §4, §5, §6

AVEFA = experiment: Greenhouse test, post-emergence herbicidal action; format: in vivo, wild oat
Excerpt: as §1, §2, §3, §4, §5, §6

crop plants = experiment: Safener action, pre-emergence, damage to crop plants; format: in vivo; settings: 21 days, application rate 100 g/ha
Excerpt: (§7) For the pre-emergence treatment, the test plants were sown is pots 1-2 days later, i.e. prior to germination, the pots were sprayed with the finely distributed herbicidal compositions, which had been suspended in water.
as §2, §4
As in the example above, test plants were grown, treated with the mixture according to the invention by the Pre-emergence method and, after a test period of 21 days, evaluated using a scale from 0 to 100% damage. The test plants used were crop plants.
A safener action is present if the damage to the crop plant caused by using a mixture according to the invention which comprises a safener C) is less than the damage caused when active compound A or active compounds A and B are used without safener.

BIDPI [3] = experiment: Greenhouse test, pre-emergence herbicidal action; format: in vivo, hairy beggarticks
Excerpt: as §7, §2, §3, §4, §5, §6

ABUTH [4] = experiment: Greenhouse test, pre-emergence herbicidal action; format: in vivo, velvet leaf
Excerpt: as §7, §2, §3, §4, §5, §6

POAAN = experiment: Greenhouse test, post-emergence herbicidal action; format: in vivo, annual bluegrass; settings: application rate 250 g/ha
Excerpt: as §1, §2, §3, §4, §5, §6

MATIN = experiment: Greenhouse test, post-emergence herbicidal action; format: in vivo, false chamomille; settings: application rate 250 g/ha
Excerpt: as §1, §2, §3, §4, §5, §6

VERSS = experiment: Greenhouse test, post-emergence herbicidal action; format: in vivo, speadwell; settings: application rate 250 g/ha
Excerpt: as §1, §2, §3, §4, §5, §6

[5] = application rate 0.49 g/ha (Example 32)
[6] = application rate 0.98 g/ha (Example 32)
[7] = application rate 62.5 g/ha, 21 days
[8] = application rate 125 g/ha, 21 days
[9] = application rate 125 g/ha (Example 28)
[10] = application rate 250 g/ha (Example 28)

For `CNC.O=C(O)COc1ccc(Cl)cc1Cl` [2,4-D dimethylamine salt], the “Herbicidal action against BIDPI, Found” value (BIDPI [1]; application rate 31.25 g/ha) was 80%, the “Herbicidal action against BIDPI, Found” value (BIDPI [1]; application rate 62.5 g/ha (Example 31)) was 80% and the “Herbicidal action against BRAPL, Found” value (BRAPL; application rate 31.25 g/ha) was 10%. For the same compound, the “Herbicidal action against BRAPL, Found” value (BRAPL; application rate 62.5 g/ha) was 15%.

With `CCCc1nc2c(Cl)cc(F)c(-c3nn(C)c(OC(F)F)c3Br)c2o1` [I.15] the “Herbicidal action against ECHCG, Found” value (ECHCG; [5]) was 30%, the “Herbicidal action against ECHCG, Found” value (ECHCG; [6]) was 40% and the “Herbicidal action against GALAP, Found” value (GALAP; application rate 0.49 g/ha (Example 29)) was 40%. For the same compound, the “Herbicidal action against GALAP, Found” value (GALAP; application rate 0.49 g/ha (Example 30)) was 40%, the “Herbicidal action against GALAP, Found” value (GALAP; [5]) was 40% and the “Herbicidal action against GALAP, Found” value (GALAP; application rate 0.98 g/ha (Example 29)) was 70%. For the same compound, the “Herbicidal action against GALAP, Found” value (GALAP; application rate 0.98 g/ha (Example 30)) was 70%, the “Herbicidal action against GALAP, Found” value (GALAP; [6]) was 70% and the “Herbicidal action against BIDPI, Found” value (BIDPI [1]; application rate 0.49 g/ha) was 30%. For the same compound, the “Herbicidal action against BIDPI, Found” value (BIDPI [1]; application rate 0.98 g/ha) was 40%, the “Herbicidal action against BRAPL, Found” value (BRAPL; application rate 0.49 g/ha) was 30% and the “Herbicidal action against BRAPL, Found” value (BRAPL; application rate 0.98 g/ha) was 75%.

`CC(C)c1nc2c(Cl)cc(Cl)c(-c3nn(C)c(OC(F)F)c3Cl)c2o1` [I.18] was tested, and the “Herbicidal action against BIDPI, Found” value (BIDPI [1]; application rate 1.95 g/ha (Example 26)) was 60%, the “Herbicidal action against BIDPI, Found” value (BIDPI [1]; application rate 1.95 g/ha (Example 27)) was 60% and the “Herbicidal action against BIDPI, Found” value (BIDPI [1]; application rate 3.91 g/ha (Example 26)) was 60%. For the same compound, the “Herbicidal action against BIDPI, Found” value (BIDPI [1]; application rate 3.91 g/ha (Example 27)) was 60%.

`CCc1cccc(C)c1N(C(=O)CCl)[C@@H](C)COC` [S-metolachlor] was tested, and the “Herbicidal action against GALAP, Found” value (GALAP; application rate 125 g/ha (Example 29)) was 0% and the “Herbicidal action against GALAP, Found” value (GALAP; application rate 250 g/ha (Example 29)) was 20%.

In the case of `CCNc1nc(Cl)nc(NC(C)C)n1` [atrazine, reference compound], the “Herbicidal action against ECHCG, Found” value (ECHCG; [7]) is reported as 45% and the “Herbicidal action against ECHCG, Found” value (ECHCG; [8]) is reported as 65%.

`CC(C)N1C(=O)c2ccccc2NS1(=O)=O` [bentazone sodium salt, reference compound] was tested, and the “Herbicidal action against ABUTH, Found” value (ABUTH [2]; application rate 125 g/ha) was 0%, the “Herbicidal action against ABUTH, Found” value (ABUTH [2]; application rate 250 g/ha) was 20% and the “Herbicidal action against POLPE, Found” value (POLPE; [8]) was 15%. For the same compound, the “Herbicidal action against POLPE, Found” value (POLPE; application rate 250 g/ha, 21 days) was 25%.

`CC1(C)CON(Cc2ccccc2Cl)C1=O` [clomazone] was tested, and the “Herbicidal action against POLPE, Found” value (POLPE; application rate 125 g/ha) was 75% and the “Herbicidal action against POLPE, Found” value (POLPE; application rate 250 g/ha) was 75%.

In the case of `COc1c(Cl)ccc(Cl)c1C(=O)O` [dicamba], the “Herbicidal action against AVEFA, Found” value (AVEFA; [9]) is reported as 20%, the “Herbicidal action against AVEFA, Found” value (AVEFA; [10]) is reported as 20% and the “Herbicidal action against BRAPL, Found” value (BRAPL; [9]) is reported as 20%. For the same compound, the “Herbicidal action against BRAPL, Found” value (BRAPL; [10]) was 20%.

With `C=CCN(CC=C)C(=O)C(Cl)Cl` [dichlormid] the “Damage to the crop plant corn (ZEAMX), cultivar Magister” value (crop plants) was 13% and the “Damage to the crop plant corn (ZEAMX), cultivar P3751” value (crop plants) was 0%.

With `C/C(=N\NC(=O)Nc1cc(F)cc(F)c1)c1ncccc1C(=O)O` [diflufenzopyr sodium salt] the “Herbicidal action against BIDPI, Found” value (BIDPI [3]; application rate 62.5 g/ha) was 40%, the “Herbicidal action against BIDPI, Found” value (BIDPI [3]; application rate 125 g/ha) was 70% and the “Herbicidal action against ABUTH, Found” value (ABUTH [4]; application rate 62.5 g/ha) was 10%. The “Herbicidal action against ABUTH, Found” value (ABUTH [4]; application rate 125 g/ha) was 30%.

For `CC(C)N(C(=O)COc1nnc(C(F)(F)F)s1)c1ccc(F)cc1` [flufenacet], the “Herbicidal action against POAAN, Found” value (POAAN) was 0%, the “Herbicidal action against MATIN, Found” value (MATIN) was 10% and the “Herbicidal action against VERSS, Found” value (VERSS) was 0%.

With `CP(=O)(O)CCC(N)C(=O)O` (stereo not shown) [glufosinate ammonium salt] the “Herbicidal action against BRAPL, Found” value (BRAPL; application rate 125 g/ha (Example 17)) was 45% and the “Herbicidal action against BRAPL, Found” value (BRAPL; application rate 125 g/ha (Example 18)) was 45%.

With `CC(C)N.O=C(O)CNCP(=O)(O)O` [glyphosate isopropylamine salt] the “Herbicidal action against AVEFA, Found” value (AVEFA; application rate 250 g/ha (Example 15)) was 40% and the “Herbicidal action against AVEFA, Found” value (AVEFA; application rate 250 g/ha (Example 16)) was 40%.

In the case of `COCc1cnc(C2=NC(C)(C(C)C)C(=O)N2)c(C(=O)O)c1` (stereo not shown) [imazamox, reference compound], the “Herbicidal action against BIDPI, Found” value (BIDPI [1]; application rate 31.25 g/ha, 21 days) is reported as 20% and the “Herbicidal action against BIDPI, Found” value (BIDPI [1]; [7]) is reported as 60%.
